The structures appear in SMILES notation.

Data set [1] concerns the target T1, CYP2C19 (Homo sapiens, UniProt P33261). Description: Inhibition of hepatic CYP2C19 at 1 uM. The data set is classed as ADME.
In data set [2] the target is T2, CYP2C9 (Homo sapiens, UniProt P11712). Description: Inhibition of hepatic CYP2C9 at 10 uM. The data set is classed as ADME.
The target in data set [3] is T2, CYP2C9. Description: Inhibition of hepatic CYP2C9 at 1 uM. The class given is ADME.
The target in data set [4] is T3, CYP3A4 (Homo sapiens, UniProt P08684). The data set can be described thus: Inhibition of hepatic CYP3A4 at 10 uM. The class given is ADME.
T3 sequence (P08684 whole entry): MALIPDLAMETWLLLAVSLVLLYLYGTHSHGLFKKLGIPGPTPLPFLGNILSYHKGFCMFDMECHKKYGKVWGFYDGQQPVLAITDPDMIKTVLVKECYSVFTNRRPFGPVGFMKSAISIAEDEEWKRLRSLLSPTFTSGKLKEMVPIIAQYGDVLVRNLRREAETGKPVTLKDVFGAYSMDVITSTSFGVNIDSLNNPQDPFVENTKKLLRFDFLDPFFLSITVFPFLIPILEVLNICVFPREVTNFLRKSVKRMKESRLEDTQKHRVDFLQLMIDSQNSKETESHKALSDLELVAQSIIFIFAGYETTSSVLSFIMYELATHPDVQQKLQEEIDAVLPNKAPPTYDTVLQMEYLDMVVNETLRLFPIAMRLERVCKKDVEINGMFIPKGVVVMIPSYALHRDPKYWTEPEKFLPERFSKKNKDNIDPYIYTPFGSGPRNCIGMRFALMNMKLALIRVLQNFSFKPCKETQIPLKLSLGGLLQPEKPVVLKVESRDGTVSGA
Data set [5] addresses T3, CYP3A4. Description: Inhibition of hepatic CYP3A4 at 1 uM. The data set is classed as ADME.
In data set [6] the target is T4, Steroid 17-alpha-hydroxylase/17,20 lyase (Homo sapiens, UniProt P05093).
T4 sequence (P05093 whole entry): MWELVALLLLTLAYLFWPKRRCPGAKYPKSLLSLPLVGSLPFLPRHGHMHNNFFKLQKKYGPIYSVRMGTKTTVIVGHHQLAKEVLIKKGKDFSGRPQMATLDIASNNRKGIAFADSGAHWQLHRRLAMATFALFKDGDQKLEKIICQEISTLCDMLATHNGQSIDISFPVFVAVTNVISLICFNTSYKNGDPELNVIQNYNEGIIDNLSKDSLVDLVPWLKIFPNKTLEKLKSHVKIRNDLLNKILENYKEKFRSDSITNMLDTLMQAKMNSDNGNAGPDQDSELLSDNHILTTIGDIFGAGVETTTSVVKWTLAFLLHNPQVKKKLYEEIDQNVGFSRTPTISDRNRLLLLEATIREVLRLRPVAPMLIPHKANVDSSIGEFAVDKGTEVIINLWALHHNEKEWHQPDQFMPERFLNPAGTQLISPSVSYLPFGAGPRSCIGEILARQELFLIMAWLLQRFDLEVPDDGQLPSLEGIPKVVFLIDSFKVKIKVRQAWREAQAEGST
The data set can be described thus: Inhibition of human CYP17 expressed in Escherichia coli at 0.2 uM.

In data set [7] the target is T5, CYP1A2 (Homo sapiens, UniProt P05177).
T5 sequence (P05177 whole entry): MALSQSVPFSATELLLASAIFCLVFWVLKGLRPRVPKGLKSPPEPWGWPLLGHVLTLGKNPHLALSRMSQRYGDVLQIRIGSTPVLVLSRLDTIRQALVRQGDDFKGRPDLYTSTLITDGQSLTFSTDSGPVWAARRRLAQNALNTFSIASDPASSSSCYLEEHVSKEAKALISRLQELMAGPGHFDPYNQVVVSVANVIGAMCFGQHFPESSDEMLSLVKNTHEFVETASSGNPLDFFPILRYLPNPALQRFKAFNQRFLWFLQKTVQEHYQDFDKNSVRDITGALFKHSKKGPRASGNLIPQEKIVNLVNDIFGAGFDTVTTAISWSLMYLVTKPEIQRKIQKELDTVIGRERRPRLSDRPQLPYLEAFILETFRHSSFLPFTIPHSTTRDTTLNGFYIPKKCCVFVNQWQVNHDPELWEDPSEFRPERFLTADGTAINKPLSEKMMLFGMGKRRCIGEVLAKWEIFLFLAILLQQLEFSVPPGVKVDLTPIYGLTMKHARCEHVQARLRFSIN
Description: Inhibition of hepatic CYP1A2 at 10 uM. The data set is classed as ADME.

Data set [8] concerns the target T5, CYP1A2. The data set can be described thus: Inhibition of hepatic CYP1A2 at 1 uM. The class given is ADME.
Data set [9] addresses T4, Steroid 17-alpha-hydroxylase/17,20 lyase. Description: Inhibition of human CYP17 expressed in Escherichia coli at 2 uM.
Data set [10] deals with T1, CYP2C19. The data set can be described thus: Inhibition of hepatic CYP2C19 at 10 uM. The data set is classed as ADME.
For data set [11], the target named is T6, CYP2D6 (Homo sapiens, UniProt P10635). The data set can be described thus: Inhibition of CYP2D6 at 10 uM. The data set is classed as ADME.
T6 sequence (P10635 whole entry): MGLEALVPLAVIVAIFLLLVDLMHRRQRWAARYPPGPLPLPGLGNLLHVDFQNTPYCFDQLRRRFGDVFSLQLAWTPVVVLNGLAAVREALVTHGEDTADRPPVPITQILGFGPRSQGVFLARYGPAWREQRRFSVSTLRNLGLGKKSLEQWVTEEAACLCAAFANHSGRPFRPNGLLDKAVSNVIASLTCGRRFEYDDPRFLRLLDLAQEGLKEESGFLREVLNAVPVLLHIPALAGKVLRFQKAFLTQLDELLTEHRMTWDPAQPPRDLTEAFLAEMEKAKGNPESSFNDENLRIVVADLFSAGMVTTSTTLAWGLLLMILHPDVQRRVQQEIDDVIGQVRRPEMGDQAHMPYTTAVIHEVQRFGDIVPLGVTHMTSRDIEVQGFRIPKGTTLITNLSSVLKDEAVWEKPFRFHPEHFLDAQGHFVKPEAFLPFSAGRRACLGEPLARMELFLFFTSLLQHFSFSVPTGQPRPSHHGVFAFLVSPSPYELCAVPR
The target in data set [12] is T7, CYP11B1 (Homo sapiens, UniProt P15538).
T7 sequence (P15538 whole entry): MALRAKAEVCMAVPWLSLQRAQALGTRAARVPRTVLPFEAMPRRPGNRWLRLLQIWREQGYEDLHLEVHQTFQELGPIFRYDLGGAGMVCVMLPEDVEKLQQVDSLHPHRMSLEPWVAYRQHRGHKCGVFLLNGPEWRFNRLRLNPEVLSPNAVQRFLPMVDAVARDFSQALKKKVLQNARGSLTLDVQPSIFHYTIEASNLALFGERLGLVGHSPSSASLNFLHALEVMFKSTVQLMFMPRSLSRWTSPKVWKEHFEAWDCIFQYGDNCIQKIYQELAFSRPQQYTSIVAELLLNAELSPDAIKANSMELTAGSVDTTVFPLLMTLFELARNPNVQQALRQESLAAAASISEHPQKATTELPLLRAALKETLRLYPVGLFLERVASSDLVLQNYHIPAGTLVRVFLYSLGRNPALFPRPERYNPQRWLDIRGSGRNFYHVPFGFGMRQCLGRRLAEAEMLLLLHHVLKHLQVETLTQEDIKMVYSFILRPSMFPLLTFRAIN
Description: Inhibition of human CYP11B1 expressed in V79Zh11B1 cells at 0.2 uM. The data set is classed as cell-based, V79. The following applies: V79Zh11B1 cells expressing human CYP11B1.

Data set [13] has as its target T3, CYP3A4. Description: Inhibition of hepatic recombinant CYP3A4 at 10 uM. The data set is classed as ADME.
The target in data set [14] is T6, CYP2D6. Description: Inhibition of CYP2D6 at 1 uM. The class given is ADME.
In data set [15] the target is T7, CYP11B1. Description: Inhibition of human CYP11B1 expressed in V79Zh11B1 cells at 2 uM. The class given is cell-based. The following applies: V79Zh11B1 cells expressing human CYP11B1.
The target of data set [16] is T4, Steroid 17-alpha-hydroxylase/17,20 lyase. Description: Inhibition of human CYP17 expressed in Escherichia coli.

T1 sequence (P33261 whole entry): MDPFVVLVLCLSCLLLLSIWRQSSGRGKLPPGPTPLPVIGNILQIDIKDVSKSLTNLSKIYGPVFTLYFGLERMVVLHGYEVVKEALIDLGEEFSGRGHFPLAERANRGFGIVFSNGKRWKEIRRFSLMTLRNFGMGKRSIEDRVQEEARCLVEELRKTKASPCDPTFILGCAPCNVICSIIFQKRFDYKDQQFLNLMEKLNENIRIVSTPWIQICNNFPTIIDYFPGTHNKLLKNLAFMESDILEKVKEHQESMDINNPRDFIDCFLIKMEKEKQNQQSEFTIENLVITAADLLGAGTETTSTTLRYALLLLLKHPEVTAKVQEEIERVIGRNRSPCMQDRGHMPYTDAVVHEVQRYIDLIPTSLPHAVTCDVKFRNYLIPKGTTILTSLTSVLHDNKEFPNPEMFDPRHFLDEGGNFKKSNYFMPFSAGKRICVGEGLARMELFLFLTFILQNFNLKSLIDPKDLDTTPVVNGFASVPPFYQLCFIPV
T2 sequence (P11712 whole entry): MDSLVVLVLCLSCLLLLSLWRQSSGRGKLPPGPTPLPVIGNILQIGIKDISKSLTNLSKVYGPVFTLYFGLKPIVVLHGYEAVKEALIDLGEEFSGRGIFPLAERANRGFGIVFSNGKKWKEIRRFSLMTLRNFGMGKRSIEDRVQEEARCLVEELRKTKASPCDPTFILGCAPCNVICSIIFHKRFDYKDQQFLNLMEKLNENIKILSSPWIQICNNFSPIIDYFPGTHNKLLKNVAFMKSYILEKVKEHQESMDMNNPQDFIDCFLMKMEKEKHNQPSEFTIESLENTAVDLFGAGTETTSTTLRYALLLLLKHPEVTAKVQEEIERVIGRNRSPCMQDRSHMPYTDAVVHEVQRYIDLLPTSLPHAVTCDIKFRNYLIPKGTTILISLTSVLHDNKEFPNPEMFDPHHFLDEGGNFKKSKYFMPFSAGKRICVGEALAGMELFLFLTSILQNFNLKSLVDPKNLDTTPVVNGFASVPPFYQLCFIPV

By inhibition is commonly meant how much of the control response was suppressed. Turning to `COc1ccc2cc(-c3ccc(F)cc3)ccc2c1-c1cccnc1`, the inhibition at 1 µM came to 68% at CYP2C19 [1], 66% on CYP2C9 [3], 64% against CYP3A4 [5] and 40% against CYP1A2 [8]. In addition, the inhibition at 10 µM came out at 54% on CYP2C9 [2], 86% against CYP3A4 [4], 87% against CYP1A2 [7] and 28% against CYP2C19 [10]. Testing at 0.2 µM in [6] gave an inhibition of 6%. For the same compound, the inhibition at 2 µM in data set [9] was 7%.
In turn, `Fc1ccc(-c2ccc3cc(Cn4ccnc4)ccc3c2)cc1` had an inhibition at 0.2 µM in data set [6] of 3%. In data set [9], this compound returned an inhibition at 2 µM of 14%.
In data set [6], `Fc1ccc(-c2cc(Cn3ccnc3)c3ccccc3c2)cc1` returned an inhibition at 0.2 µM of 9%. For the same compound, in [9], the inhibition at 2 µM stood at 50%.
For `Fc1ccc(-c2ccc3cc(-c4cccnc4)ccc3c2)cc1` the same measures were 0% and 22%.
For `Fc1ccc(-c2ccc3c(Cn4ccnc4)cccc3c2)cc1` the same measures were 2% and 19%.
Take `COc1ccc2cc(-c3cccc(Cn4ccnc4)c3)ccc2c1`: the inhibition at 1 µM on CYP2C19 [1] was 95%; on CYP2C9 [3], 97%; against CYP3A4 [5], 91%; at CYP1A2 [8], 96%. Also, the inhibition at 10 µM against CYP2C9 [2] stood at 100%; at CYP3A4 [4] it was 96%; at CYP1A2 [7], 97%; at CYP2C19 [10], 97%. The same compound displayed an inhibition at 0.2 µM in [6] of 0%. In [9], this compound displayed an inhibition at 2 µM of 28%.
On to `Fc1ccc(-c2ccc3c(-c4ccncc4)cccc3c2)cc1`, for which, in [6], the inhibition at 0.2 µM was 1%. In addition, at 2 µM the inhibition in data set [9] was 28%.
For `COc1ccc2cc(-c3cccc(-c4ccncc4)c3)ccc2c1` the same measures were 4% and 23%.
The corresponding values for `Fc1ccc(-c2ccc3c(-c4cccnc4)cccc3c2)cc1` are 2% and 3%.
Turning to `Cc1cc(F)ccc1-c1ccc2c(-c3cccnc3)cccc2c1`, the inhibition at 0.2 µM in data set [6] is 3%. The compound further yielded an inhibition at 2 µM in data set [9] of 3%.
As for `Oc1ccc2cc(-c3cccc(-c4ccncc4)c3)ccc2c1`, the inhibition at 1 µM came out at 86% on CYP2C19 [1]; 94% at CYP2C9 [3]; 6% against CYP3A4 [5]; 98% against CYP1A2 [8]; 80% on CYP2D6 [14]. For the same compound, the inhibition at 10 µM against CYP2C9 [2] was found to be 97%; on CYP3A4 [4], 19%; on CYP2D6 [11], 85%; at CYP3A4 [13], 19%; on CYP1A2 [7] it was 98%; against CYP2C19 [10], 89%. Also, the inhibition at 0.2 µM in data set [6] was 31%; at CYP11B1 [12] it was 3%. In addition, the inhibition at 2 µM amounted to 66% in [9] and 23% against CYP11B1 [15].
As for `CC(=O)N1CCN(c2ccc(OCC3COC(Cn4ccnc4)(c4ccc(Cl)cc4Cl)O3)cc2)CC1` (stereo not drawn) [KETOCONAZOLE], the inhibition at 1 µM worked out at 24% against CYP2C19 [1], 21% at CYP2C9 [3], 1% against CYP3A4 [5] and 8% against CYP1A2 [8]. Moreover, the inhibition at 10 µM at CYP2C9 [2] came to 75%; on CYP3A4 [4], 4%; on CYP1A2 [7] it was 38%; at CYP2C19 [10] it was 1%.
In data set [6], `Oc1ccc2cc(-c3ccc(F)cc3)ccc2c1-c1cccnc1` had an inhibition at 0.2 µM of 0%. For the same compound, in [9], 2 µM produced 0% inhibition.
`Oc1ccc2cc(-c3ccc(Cn4ccnc4)cc3)ccc2c1` gave an inhibition at 0.2 µM in data set [6] of 24%. Moreover, in data set [9], the inhibition at 2 µM is 61%.
As to `COc1ccc2cc(-c3cccc(-c4cccnc4)c3)ccc2c1`, the inhibition at 0.2 µM in data set [6] was found to be 3%. This compound had an inhibition at 2 µM in [9] of 4%.
Regarding `COc1ccc2cc(-c3ccc(F)cc3)ccc2c1Cn1ccnc1`, the inhibition at 1 µM on CYP2C19 [1] stood at 93%; at CYP2C9 [3], 100%; at CYP3A4 [5], 93%; on CYP1A2 [8], 80%. For the same compound, the inhibition at 10 µM at CYP2C9 [2] was found to be 100%; on CYP3A4 [4], 95%; at CYP1A2 [7], 85%; on CYP2C19 [10], 96%. The inhibition at 0.2 µM in [6] was determined as 13%. Further, the inhibition at 2 µM in data set [9] was determined as 45%.
For `COc1ccc2cc(-c3cccnc3)ccc2c1-c1ccc(F)cc1`, the inhibition at 0.2 µM in data set [6] is 0%. This compound also showed an inhibition at 2 µM in data set [9] of 1%.
By IC50 is commonly meant the concentration needed to halve the response being measured. A high value points to weaker potency. As for `C[C@]12CC[C@H](O)CC1=CC[C@@H]1[C@@H]2CC[C@]2(C)C(c3cccnc3)=CC[C@@H]12` [ABIRATERONE], the inhibition at 1 µM at CYP2C19 [1] worked out at 3%; on CYP2C9 [3] it was 17%; against CYP3A4 [5] it was 7%; at CYP1A2 [8] it was 36%. The inhibition at 10 µM against CYP2C9 [2] came to 51%; at CYP3A4 [4], 7%; at CYP1A2 [7] it was 53%; on CYP2C19 [10], 7%. For the same compound, the IC50 in [16] was determined as 72 nM.
Take `Oc1ccc2cc(-c3cccc(-c4cccnc4)c3)ccc2c1`: the inhibition at 0.2 µM in data set [6] was found to be 0%. Further, the inhibition at 2 µM in data set [9] amounted to 8%.

For the origin of these results see ChEMBL document CHEMBL1140785, “Synthesis, biological evaluation and molecular modelling studies of novel ACD- and ABD-ring steroidomimetics as inhibitors of CYP17” (Bioorg Med Chem Lett, 2008).
